Test results: patent US20130090385A1, “NOVEL SPECIFIC CASPASE-10 INHIBITORS” (MERCK PATENT GESELLSCHAFT MIT BESCHRANKTER HAFTUNG, priority 2005, published 2013)

Key:
[1] = target: T1, Recombinant human caspase-3 (Homo sapiens, UniProt P42574); assay: delayed-time fluorescence caspase inhibition test, caspase-3
T1 sequence (P42574 29-277): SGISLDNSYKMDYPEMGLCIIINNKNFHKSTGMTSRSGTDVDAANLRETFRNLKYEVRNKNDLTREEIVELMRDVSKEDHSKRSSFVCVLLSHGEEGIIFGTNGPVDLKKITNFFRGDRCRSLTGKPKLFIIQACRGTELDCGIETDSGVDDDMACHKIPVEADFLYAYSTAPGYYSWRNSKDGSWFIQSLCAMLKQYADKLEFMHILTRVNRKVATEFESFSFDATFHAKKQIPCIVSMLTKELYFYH
Method: (§1) The substrate used is a tetrapeptide specific to this caspase, having at one of its ends a fluorescent europium marker (W1284) and at the other end a europium chelate fluorescence quencher (QSy-7): Eu-W1284-CIETDK-QSy-7.
(§2) The caspase cleaves the substrate, releasing the quencher. Thus, by excitation at 340 nm, the signal emitted by the fluorescence of the europium is read by WALLAC Victor^2 reader at 615 nm.
20 μl of this solution are distributed per well of the assay plate. […] The assay is performed with 1 U of enzyme per well, by distributing 20 μl of the diluted solution per well. • The standard inhibitors: The standard inhibitors are dissolved in DMSO to a concentration of 10 mM. They are tested at IC20 and at IC50 on the caspases they inhibit (see following table). The concentrations mentioned in the table are the final concentrations in the assay wells.
(§3) They are then distributed in the wells using this solution to reach the final concentration of IC20 or IC50, i.e. 3 μl in 33 μl of final reaction volume (dilution 1/11). Thus, the final concentration of DMSO in the well is 0.3% (v/v) final. […] An intermediate dilution (1/6.6) is prepared in DMSO by diluting 10 μl of the concentrated solution in 66 μl of DMSO (final volume). […] The inhibitors are then distributed in the wells to reach the final screening concentration (10 μM), i.e. 3 μl in 33 μl of final reaction volume (dilution 1/11) and a final concentration of DMSO of 0.3% (v/v) in the well. • Protocol:
The volumes and the protocol were optimised for automated use.
(§4) The incubation takes place for 3 hours 30 minutes at room temperature before reading the fluorescence in delayed time on the WALLAC Victor^2 reader with the filters corresponding to the fluorescence of europium (excitation filter: 340 nm, emission filter: 615 nm).
The inhibitors are diluted using solutions with concentrations of less than 20 mM in DMSO, and then prediluted in the caspase buffer.

[2] = target: T2, Recombinant human caspase-6 (Homo sapiens, UniProt P55212); assay: delayed-time fluorescence caspase inhibition test, caspase-6
T2 sequence (P55212 24-293): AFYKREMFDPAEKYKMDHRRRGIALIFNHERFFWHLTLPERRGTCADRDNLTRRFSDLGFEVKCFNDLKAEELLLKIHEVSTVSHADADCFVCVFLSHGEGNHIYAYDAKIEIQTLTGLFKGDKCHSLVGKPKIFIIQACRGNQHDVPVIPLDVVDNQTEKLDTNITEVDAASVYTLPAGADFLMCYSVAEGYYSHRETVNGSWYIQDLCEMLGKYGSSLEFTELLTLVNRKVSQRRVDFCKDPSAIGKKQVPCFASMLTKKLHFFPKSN
Method: as §1, §2
(§5) They are ready for use or may be divided into aliquots and stored at −80° C.. […] 20 μl of this solution are distributed per well of the assay plate. […] The assay is performed with 1 U of enzyme per well, by distributing 20 μl of the diluted solution per well. • The standard inhibitors: The standard inhibitors are dissolved in DMSO to a concentration of 10 mM. They are tested at IC20 and at IC50 on the caspases they inhibit (see following table).
as §3, §4
(§6) The inhibitors are diluted using solutions with concentrations of less than 20 mM in DMSO, and then prediluted in the caspase buffer. […] The specificity factor for caspase-10 is calculated as the following ratio:

[3] = target: Recombinant human caspase-8 (Homo sapiens, UniProt Q14790); assay: delayed-time fluorescence caspase inhibition test, caspase-8
Method: as §1, §2, §5, §3, §4, §6

[4] = target: T3, Recombinant human caspase-2 (Homo sapiens, UniProt P42575); assay: delayed-time fluorescence caspase inhibition test, caspase-2
T3 sequence (P42575 1-452): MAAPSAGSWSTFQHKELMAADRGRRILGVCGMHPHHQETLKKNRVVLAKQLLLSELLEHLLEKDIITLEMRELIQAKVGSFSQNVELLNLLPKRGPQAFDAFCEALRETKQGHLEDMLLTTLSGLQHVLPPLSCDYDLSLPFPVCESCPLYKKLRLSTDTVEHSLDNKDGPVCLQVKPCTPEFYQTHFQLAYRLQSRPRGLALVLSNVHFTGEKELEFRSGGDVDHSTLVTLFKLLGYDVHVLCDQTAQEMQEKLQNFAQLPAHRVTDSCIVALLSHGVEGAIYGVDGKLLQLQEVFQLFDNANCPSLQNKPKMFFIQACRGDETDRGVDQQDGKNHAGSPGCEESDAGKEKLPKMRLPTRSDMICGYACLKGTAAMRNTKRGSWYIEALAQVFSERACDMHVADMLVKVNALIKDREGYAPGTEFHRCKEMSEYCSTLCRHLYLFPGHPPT
Method: as §1, §2, §5, §3, §4, §6

[5] = target: T4, Recombinant human caspase-9 (Homo sapiens, UniProt P55211); assay: delayed-time fluorescence caspase inhibition test, caspase-9
T4 sequence (P55211 1-416): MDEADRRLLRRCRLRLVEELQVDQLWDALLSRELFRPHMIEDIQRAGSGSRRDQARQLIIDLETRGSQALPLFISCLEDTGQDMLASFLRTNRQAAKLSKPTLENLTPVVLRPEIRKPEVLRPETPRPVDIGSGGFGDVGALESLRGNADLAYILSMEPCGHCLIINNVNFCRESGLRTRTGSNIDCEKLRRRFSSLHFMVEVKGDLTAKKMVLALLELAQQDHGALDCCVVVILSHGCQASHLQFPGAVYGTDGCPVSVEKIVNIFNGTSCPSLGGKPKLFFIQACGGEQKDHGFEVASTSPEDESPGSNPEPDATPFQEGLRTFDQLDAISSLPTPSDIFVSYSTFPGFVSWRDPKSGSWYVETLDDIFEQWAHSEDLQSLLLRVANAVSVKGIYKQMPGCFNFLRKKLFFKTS
Method: as §1, §2, §5, §3, §4, §6

[6] = target: T5, Recombinant human caspase-10 (Homo sapiens, UniProt Q92851); assay: delayed-time fluorescence caspase inhibition test, caspase-10
T5 sequence (Q92851 220-521): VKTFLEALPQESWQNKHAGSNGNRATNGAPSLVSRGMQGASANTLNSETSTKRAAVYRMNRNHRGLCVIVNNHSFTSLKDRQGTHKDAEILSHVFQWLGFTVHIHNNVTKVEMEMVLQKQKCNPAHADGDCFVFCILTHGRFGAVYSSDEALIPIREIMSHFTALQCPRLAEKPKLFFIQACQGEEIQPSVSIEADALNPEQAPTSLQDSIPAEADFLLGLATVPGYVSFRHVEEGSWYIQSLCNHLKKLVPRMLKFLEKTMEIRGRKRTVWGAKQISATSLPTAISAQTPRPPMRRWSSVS
Method: as §1, §2, §5, §3, §4, §6

Chain of Recombinant human caspase-8 (Q14790 217-479): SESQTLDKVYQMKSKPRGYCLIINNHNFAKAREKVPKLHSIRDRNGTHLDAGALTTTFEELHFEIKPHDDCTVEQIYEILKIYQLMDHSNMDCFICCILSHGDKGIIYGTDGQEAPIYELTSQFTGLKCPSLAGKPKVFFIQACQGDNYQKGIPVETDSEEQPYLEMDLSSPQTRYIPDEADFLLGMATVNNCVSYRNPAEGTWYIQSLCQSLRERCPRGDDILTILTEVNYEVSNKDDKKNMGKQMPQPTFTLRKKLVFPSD

IC50 [1] [µM] | IC50 [2] [µM] | IC50 [3] [µM] | IC50 [4] [µM] | IC50 [5] [µM] | IC50 [6] [µM] | SMILES
> 200 | > 200 | > 200 | > 200 | > 200 | 5.51 | COc1ccc(S(=O)(=O)NCC2(Cc3ccc(CCO)cc3)CCCC2)cc1 [Example 47]
> 200 | > 200 | > 200 | > 200 | > 200 | 3.16 | O=S(=O)(NCC1(Cc2ccc(CCO)cc2)CCCC1)c1cccc(C(F)(F)F)c1 [Example 50]
> 200 | > 200 | > 200 | > 200 | > 200 | 0.216 | O=S(=O)(NCC1(Cc2ccc(CCSC3CCCC3)cc2)CCC1)c1ccc(Cl)cc1Cl [Example 12, 2,4-dichloro-N-[(1-{4-[2-(cyclopentylthio)ethyl]benzyl}cyclobutyl)methyl]benzenesulfonamide]
> 200 | > 200 | > 200 | > 200 | > 200 | 0.705 | O=S(=O)(NCC1(Cc2ccc(CCS(=O)(=O)C3CCCC3)cc2)CCC1)c1ccc(Cl)cc1Cl [Example 22, 2,4-dichloro-N-[(1-{4-[2-(cyclopentylsulfonyl)ethyl]benzyl}cyclobutyl)methyl]benzenesulfonamide]
> 200 | > 200 | > 200 | > 200 | > 200 | 2.88 | CC(=O)c1ccc(S(=O)(=O)NCC2(Cc3ccc(CCO)cc3)CCCC2)cc1 [Example 35]
> 200 | > 200 | > 200 | > 200 | > 200 | 3.14 | O=S(=O)(NCC1(Cc2ccc(CCO)cc2)CCCC1)c1ccc(C(F)(F)F)cc1 [Example 49]
> 200 | > 200 | > 200 | > 200 | > 200 | 3.5 | O=S(=O)(NCC1(Cc2ccc(CCO)cc2)CCCC1)c1cccc(Cl)c1 [Example 34]
> 200 | > 200 | > 200 | > 200 | > 200 | 1.79 | O=S(=O)(NCC1(Cc2ccc(CCO)cc2)CCCC1)c1cc(F)c(F)c(F)c1 [Example 61]
> 200 | > 200 | > 200 | > 200 | > 200 | 3.59 | COc1ccc(S(=O)(=O)NCC2(Cc3ccc(CCOCC4CC4)cc3)CCC2)cc1 [Example 5, N-[(1-{4-[2-(cyclopropylmethoxy)ethyl]benzyl}cyclobutyl)methyl]-4-methoxy-benzenesulfonamide]
